The values that follow come from patent US12560609B2, “Biomarkers predictive of cancer cell response to ML329 or a derivative thereof” (Dana-Farber Cancer Institute, Inc., priority 2018, dated 2026).

Data set [1] deals with T1, CK2 (Homo sapiens, UniProt P19784+P68400).
T1 construct: endogenous in cells
Briefly: SAR of ML329 derivatives: NQO1-dependent CK2 inhibitors. The class given is cell-based. The following applies: FIG. 21.

Data set [2] addresses CK2 (Homo sapiens, UniProt P68400). Briefly: CK2 activity in vitro, with or without Nqo1. The class given is biochemical. To be noted: for requirement of Nqo1 for inhibition of CK2 in vitro: FIG. 24E, 24F.
Data set [3] deals with KEAP1-mutant lung cancer cells. Briefly: Sensitivity of wild-type and KEAP1-mutated lung cancer cell lines to ML329. The class given is cell-based. The following applies: sensitive cell lines had IC50<10 μM (FIG. 35B). The protocol: ML329 (4-[(1,4-dioxo-1,4-dihydronapthalen-2-yl)amino]benzenesulfonamide; […]) is a small molecule that was initially identified as an inhibitor of microphthalmia-associated transcription factor (MITF) (FIGS. 1-6). Briefly, Sk-MEL-5 melanoma cells expressing the promoter of MITF target TRPM1, upstreatm of a luciferase gene, were screened with a library of 331,578 compounds. Secondary screening was performed in two MITF-dependent melanoma cell links (SK-MEL-5 and MALME) and one non-MITF dependent cell line (A375). Candidate hits were tested for their effects on MITF target genes by qPCR. BRD-K45681478 was prioritized for medicinal chemistry. The lead compounds ML329 was used in subsequent studies. […] CK2 is an essential kinase and its reduction/inhibition is lethal (FIG. 11 and FIG. 12). Experiments were performed to determine that ML329 is bioreduced by an enzyme called NQO1, which is preferentially expressed in some cancer types, especially melanoma (FIGS. 13-15). Since ML329 is converted by cancer cells into an active form, it can avoid effects on normal cells. NQO1 is necessary and sufficient for the activity of ML329, thus enabling targeting of CK2 specifically to cancers with high NQO1 expression (FIGS. 16-18). […] Greater than 90% of KEAP1-mutant lung cancers were determined to be sensitive to ML329 (FIG. 20).

Data set [4] relates to CK2alpha and CK2alpha prime. Description: Target identification: bead pull-down from SK-MEL-5 lysate with ML329 competition, mass spectrometry. In kind it is binding. The source says:
Whole protein lysates were generated from SK-MEL-5 melanoma cells and mixed with either KUC114363 (a derivative of ML329 conjugated to agarose beads) or KUC114363 along with competing amounts of soluble ML329. Mass spectrometry was used to identify proteins that bound KUC114363 whose binding was diminished upon treatment with ML329. […] Kinases found to bound are marked with red circles, where larger circles indicate higher-affinity binding. KINOMEScan image was generated using TREEspot™ Software Tool and reprinted with permission from KINOMEscan®, a division of DiscoveRx Corporation, © DISCOVERX CORPORATION 2010.

The target in a further data set is Nqo1 (Homo sapiens, UniProt P15559). Briefly: Reduction of ML329 by Nqo1 in vitro. In kind it is biochemical. The following applies: FIG. 24D.
Another data set has as its system WM266.4 cells. Description: WM266.4 melanoma xenograft, tumor volume. To be noted: NSG mice xenografted with WM266.4 cells; 10 mg/kg twice daily. The class given is in vivo.
A further data set concerns MITF. Description: qPCR of MITF mRNA and MITF target genes. In kind it is cell-based. To be noted: FIG. 22. The source says:
FIG. 26A-FIG. 26H show the results of a small molecule screen to identify regulators of lineage-specific melanoma oncogene MITF. […] SK-MEL-5 cells stably expressing the TRPM1 promoter fused to the luciferase gene were screened with 331,578 compounds. Secondary screens of putative hits including evaluating cytotoxicity in 2 MITF-dependent cell lines (SK-MEL-5, MALME) and 1 MITF-independent cell line (A375M) and evaluation the effect of candidate hits on the mRNA of MITF and target genes. […] BRD-K45681478 was the lead hit, which was modified by structure-function analysis to generate the compound ML329. FIG. 26B show cell number after 48 h treatment of melanoma cell lines (red) compared to non-melanoma cell lines (black) with ML329. […] MITF-dependent cell lines are depicted in green, whereas the MITF-independent cell line is depicted in red.
ML329 (4-[(1,4-dioxo-1,4-dihydronapthalen-2-yl)amino]benzenesulfonamide; KUC114363) is a small molecule that was initially identified as an inhibitor of microphthalmia-associated transcription factor (MITF) (FIGS. 1-6). Briefly, Sk-MEL-5 melanoma cells expressing the promoter of MITF target TRPM1, upstreatm of a luciferase gene, were screened with a library of 331,578 compounds. […] Greater than 90% of KEAP1-mutant lung cancers were determined to be sensitive to ML329 (FIG. 20).
Background: Real-time PCR tracks product formation cycle by cycle.

In a further data set the test system is 489 cancer cell lines. Briefly: PRISM viability screen of 489 cancer cell lines. The following applies: 489 cell lines, FIG. 30. The class given is cell-based. The method, then: Negative odds are associated with sensitivity to ML329 whereas positive odds are associated with insensitivity to ML329.
Strictly Standardized Mean Difference (SSMD) was determined for each cell line. Cell lines with SSMD<2 were filtered out. All cell lines tested had SSMD>2.

CK2 (Homo sapiens, UniProt P68400), sequence (P68400 whole entry): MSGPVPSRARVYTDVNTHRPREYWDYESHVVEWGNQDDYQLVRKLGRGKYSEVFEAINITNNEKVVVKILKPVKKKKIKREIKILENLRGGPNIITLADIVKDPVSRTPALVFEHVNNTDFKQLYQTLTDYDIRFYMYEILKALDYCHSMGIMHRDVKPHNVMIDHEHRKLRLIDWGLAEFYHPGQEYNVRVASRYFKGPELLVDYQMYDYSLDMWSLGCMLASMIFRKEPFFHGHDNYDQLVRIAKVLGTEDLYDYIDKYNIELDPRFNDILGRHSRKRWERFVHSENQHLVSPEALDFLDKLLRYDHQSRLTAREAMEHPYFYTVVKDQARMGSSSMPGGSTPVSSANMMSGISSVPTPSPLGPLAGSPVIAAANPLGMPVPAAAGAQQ
T1 sequence (P68400 whole entry): as above
T1 sequence (P19784 whole entry): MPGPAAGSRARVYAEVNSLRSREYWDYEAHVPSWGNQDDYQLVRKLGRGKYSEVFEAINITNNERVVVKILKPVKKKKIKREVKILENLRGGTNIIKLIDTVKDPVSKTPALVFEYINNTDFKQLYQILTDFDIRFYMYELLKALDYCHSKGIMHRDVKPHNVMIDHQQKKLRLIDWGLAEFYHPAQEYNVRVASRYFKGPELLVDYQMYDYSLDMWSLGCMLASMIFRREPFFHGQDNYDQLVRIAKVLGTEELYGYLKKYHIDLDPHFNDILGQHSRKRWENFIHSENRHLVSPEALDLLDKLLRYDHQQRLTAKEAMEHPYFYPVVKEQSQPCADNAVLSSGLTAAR
T1 sequence (P67870 whole entry partner): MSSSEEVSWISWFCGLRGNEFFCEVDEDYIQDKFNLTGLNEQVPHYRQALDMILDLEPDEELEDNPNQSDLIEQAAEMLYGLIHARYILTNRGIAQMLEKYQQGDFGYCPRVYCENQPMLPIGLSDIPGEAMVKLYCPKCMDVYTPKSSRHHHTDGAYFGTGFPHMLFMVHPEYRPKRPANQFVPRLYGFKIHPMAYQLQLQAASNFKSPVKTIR
Nqo1, sequence (P15559 whole entry, species assumed): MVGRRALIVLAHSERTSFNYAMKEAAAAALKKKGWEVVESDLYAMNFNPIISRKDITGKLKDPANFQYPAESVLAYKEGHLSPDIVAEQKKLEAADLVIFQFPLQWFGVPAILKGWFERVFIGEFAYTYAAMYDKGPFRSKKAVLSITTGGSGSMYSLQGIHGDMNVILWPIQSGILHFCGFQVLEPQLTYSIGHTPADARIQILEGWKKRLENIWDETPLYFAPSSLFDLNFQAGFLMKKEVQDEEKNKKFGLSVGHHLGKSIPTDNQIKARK

Regarding `NS(=O)(=O)c1cccc(NC2=CC(=O)c3ccccc3C2=O)c1` [SCAP105461], the “potency and selectivity as NQO1-dependent CK2 inhibitor (SAR, relative to ML329)” value on CK2 [1] was “more potent and selective NQO1-dependent CK2 inhibitors”.
In the case of `O=C(O)c1ccc2c(c1)nc(Nc1cccc(Cl)c1)c1ccncc12` [CX4945, 5-[(3-Chlorophenyl)amino]benzo[c]-2,6-naphthyridine-8-carboxylic acid, reference compound], the “requirement of Nqo1 for inhibition of CK2 in vitro” value on CK2 [2] was “Nqo1 is not required”. The “potency and selectivity as NQO1-dependent CK2 inhibitor (SAR, relative to ML329)” value on CK2 [1] is “more potent and selective NQO1-dependent CK2 inhibitors”.
Turning to `NC(=O)c1ccc(NC2=CC(=O)c3ccccc3C2=O)cc1` [SCAP105463], the “potency and selectivity as NQO1-dependent CK2 inhibitor (SAR, relative to ML329)” value at CK2 [1] was “more potent and selective NQO1-dependent CK2 inhibitors”.
Regarding `NS(=O)(=O)c1ccc(NC2=CC(=O)c3ccccc3C2=O)cc1` [ML329, 4-[(1,4-dioxo-1,4-dihydronapthalen-2-yl)amino]benzenesulfonamide], the “share of KEAP1-mutant lung cancers sensitive to ML329” value in data set [3] is listed as “Greater than 90%”. Moreover, the “binding to CK2 subunits in vitro” value in data set [4] is “binds to CK2alpha and CK2alpha prime”. Moreover, the “requirement of Nqo1 for inhibition of CK2 in vitro” value on CK2 [2] is recorded as “Nqo1 is required”. For the same compound, on CK2 [2] (in vitro), the “inhibition of CK2 activity” value was “inhibits CK2 activity in an ATP-competitive manner”. In addition, the “substrate of Nqo1 in vitro” value at Nqo1 was “direct substrate of Nqo1 in vitro”. The “in vivo activity in melanoma (tumor volume)” value in the data set on WM266.4 cells is “has in vivo activity in melanoma that requires NRF2/NQO1”. Also, the “effect on MITF mRNA and target gene expression” value in the data set with MITF is “suppresses MITF mRNA and target gene expression”. In addition, the “selectivity of cytotoxicity across cancer cell lines” value in the data set on 489 cancer cell lines was “selectively cytotoxic in melanoma cells”.
